# System: platelet aggregation in human platelet rich plasma (PRP)
# Assay: Platelet Aggregation Assay (platelet rich plasma, with or without esterase pretreatment)
# Assay type: cell-based
# Details: Platelet, preincubated with 100 IU/mL porcine liver esterase 2 hours at 37° C., 100 μM ADP, read-out: Platelet Aggregation Assay IC50 (with esterase)
# In short: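 Human citrated PRP from drug-free donors, PPP as 100% transmittance blank; compounds added at various concentrations before agonist (ADP, collagen, arachidonate, epinephrine or thrombin), aggregation followed by light transmittance. Ester prodrugs pretreated (10^-3 M F.C.) with 100 IU/mL porcine liver esterase, 2 h 37 °C; 8 min 37 °C preincubation, then 100 μM ADP, 5 min; % inhibition vs control, IC50.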
row,Structure (SMILES),IC50 [µM]
1,Cc1cccc(S(=O)(=O)NC(CNC(=O)Cc2cc(-c3ccc(C(=N)N)cc3)no2)C(=O)O)c1 (stereo not shown) [Example 798],< 10
2,"CCCCOC(=O)N[C@@H](CNC(=O)CC1=NOC(c2ccc(C(=N)N)cc2)C1)C(=O)OC (stereo partly drawn) [Example 829, Methyl N^2-n-butyloxycarbonyl-N^3-[5-(4-amidinophenyl)isoxazolin-3-ylacetyl]-(2S)-2,3-diaminopropionate]",< 10
3,N=C(N)NCCCC1CC(C(=O)NCC(NC(=O)OCc2ccccc2)C(=O)O)=NO1 (stereo not shown) [Example 1284],< 10
4,N=C(N)NCCCCC1CC(C(=O)NCC(NC(=O)OCc2ccccc2)C(=O)O)=NO1 (stereo not shown) [Example 1321],< 10
5,N=C(N)NCCC1CC(C(=O)NCC(NC(=O)OCc2ccccc2)C(=O)O)=NO1 (stereo not shown) [Example 1525],< 10
6,N=C(N)NCCCC1=NOC(CC(=O)NCC(NC(=O)OCc2ccccc2)C(=O)O)C1 (stereo not shown) [Example 1694],< 10
7,N=C(N)NCCCCC1=NOC(CC(=O)NCC(NC(=O)OCc2ccccc2)C(=O)O)C1 (stereo not shown) [Example 1731],< 10
8,Cc1noc(C)c1S(=O)(=O)N[C@@H](CNC(=O)C[C@H]1CC(c2ccc(C(=N)N)cc2)=NO1)C(=O)O [Example 2104],< 10
9,N=C(N)NCCC1=NOC(CC(=O)NCC(NC(=O)OCc2ccccc2)C(=O)O)C1 (stereo not shown) [Example 2109],< 10
10,N=C(N)NCCCCCC1=NOC(CC(=O)NCC(NC(=O)OCc2ccccc2)C(=O)O)C1 (stereo not shown) [Example 2110],< 10
11,COC(=O)C(CNC(=O)CC1CC(c2ccc(C(=N)NCc3ccccc3OC)cc2)=NO1)NS(=O)(=O)c1ccccc1C (stereo not shown) [Example 2111],< 10
12,COc1ccccc1CNC(=N)c1ccc(C2=NOC(CC(=O)NCC(NS(=O)(=O)c3ccccc3C)C(=O)O)C2)cc1 (stereo not shown) [Example 2112],< 10
13,CCCCNC(=N)c1ccc(C2=NOC(CC(=O)NCC(NS(=O)(=O)c3ccccc3C)C(=O)OC)C2)cc1 (stereo not shown) [Example 2113],< 10
14,CCCCNC(=N)c1ccc(C2=NOC(CC(=O)NCC(NS(=O)(=O)c3ccccc3C)C(=O)O)C2)cc1 (stereo not shown) [Example 2114],< 10
15,CCNC(=N)c1ccc(C2=NOC(CC(=O)NCC(NS(=O)(=O)c3ccccc3C)C(=O)OC)C2)cc1 (stereo not shown) [Example 2115],< 10
16,CCNC(=N)c1ccc(C2=NOC(CC(=O)NCC(NS(=O)(=O)c3ccccc3C)C(=O)O)C2)cc1 (stereo not shown) [Example 2116],< 10
17,COC(=O)C(CNC(=O)CC1CC(c2ccc(C(=N)N)cc2)=NO1)NS(=O)(=O)c1ccc(S(=O)(=O)c2ccccc2)s1 (stereo not shown) [Example 2118],< 10
18,N=C(N)c1ccc(C2=NOC(CC(=O)NCC(NS(=O)(=O)c3ccc(S(=O)(=O)c4ccccc4)s3)C(=O)O)C2)cc1 (stereo not shown) [Example 2119],< 10
19,CC(C)(C)OC(=O)NC(=N)c1ccc(C2=NOC(CC(=O)NCC(NS(=O)(=O)c3ccc(S(=O)(=O)c4ccccc4)s3)C(=O)O)C2)cc1 (stereo not shown) [Example 2120],< 10
20,N=C(N)NCCC1CC(CCC(=O)NCC(NC(=O)OCc2ccccc2)C(=O)O)=NO1 (stereo not shown) [Example 2280],< 10
21,N=C(N)NCC1CC(CCC(=O)NCC(NC(=O)OCc2ccccc2)C(=O)O)=NO1 (stereo not shown) [Example 2281],< 10
22,N=C(N)NCCC1=NOC(CCC(=O)NCC(NC(=O)OCc2ccccc2)C(=O)O)C1 (stereo not shown) [Example 2400],< 10
23,N=C(N)NCCCC1=NOC(C(=O)NCC(NC(=O)OCc2ccccc2)C(=O)O)C1 (stereo not shown) [Example 2401],< 10
24,N=C(N)NCCCCCC1=NOC(C(=O)NCC(NC(=O)OCc2ccccc2)C(=O)O)C1 (stereo not shown) [Example 2402],< 10
25,N=C(N)NCCCC1=NOC(CCC(=O)NCC(NC(=O)OCc2ccccc2)C(=O)O)C1 (stereo not shown) [Example 2403],< 10
26,N=C(N)NCCCCC1=NOC(CCC(=O)NCC(NC(=O)OCc2ccccc2)C(=O)O)C1 (stereo not shown) [Example 2404],< 10
27,N=C(N)NCCC1=NOC(C(=O)NCC(NC(=O)OCc2ccccc2)C(=O)O)C1 (stereo not shown) [Example 2405],< 10
28,N=C(N)NCCCCC1=NOC(C(=O)NCC(NC(=O)OCc2ccccc2)C(=O)O)C1 (stereo not shown) [Example 2406],< 10

# Reference: patent US5849736A, “Isoxazoline and isoxazole fibrinogen receptor antagonists” (The DuPont Merck Pharmaceutical Company, priority 1995, dated 1998)
